Data published in ChEMBL document CHEMBL1148021, “(Arylpiperazinyl)cyclohexylsufonamides: discovery of alpha(1a/1d)-selective adrenergic receptor antagonists for the treatment of Benign Prostatic Hyperplasia/Lower Urinary Tract Symptoms (BPH/LUTS)” (Bioorg Med Chem Lett, 2007).

Assays:
[1] = biological target: D(2) dopamine receptor (Homo sapiens, UniProt P14416); experiment: Binding affinity to human dopamine D2 receptor
[2] = biological target: T1, Alpha-1B adrenergic receptor (Homo sapiens, UniProt P35368); experiment: Binding affinity to human cloned adrenergic alpha-1B receptor
T1 sequence (P35368 whole entry): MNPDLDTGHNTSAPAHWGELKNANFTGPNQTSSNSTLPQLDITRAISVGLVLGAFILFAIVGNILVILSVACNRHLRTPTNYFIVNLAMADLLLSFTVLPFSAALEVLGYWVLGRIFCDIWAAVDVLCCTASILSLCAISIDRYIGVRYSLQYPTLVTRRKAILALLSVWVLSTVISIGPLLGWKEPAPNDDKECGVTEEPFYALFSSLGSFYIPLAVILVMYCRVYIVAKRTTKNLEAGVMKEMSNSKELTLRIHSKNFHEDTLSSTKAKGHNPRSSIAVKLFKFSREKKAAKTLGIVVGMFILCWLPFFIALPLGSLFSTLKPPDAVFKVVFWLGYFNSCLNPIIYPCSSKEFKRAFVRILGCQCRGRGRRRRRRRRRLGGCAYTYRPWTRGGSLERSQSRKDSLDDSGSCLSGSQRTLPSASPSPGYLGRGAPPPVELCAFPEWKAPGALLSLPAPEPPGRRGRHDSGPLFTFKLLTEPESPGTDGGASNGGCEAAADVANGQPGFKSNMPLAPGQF

[3] = biological target: T2, Alpha-1D adrenergic receptor (Homo sapiens, UniProt P25100); experiment: Binding affinity to human cloned adrenergic Alpha-1D receptor
T2 sequence (P25100 whole entry): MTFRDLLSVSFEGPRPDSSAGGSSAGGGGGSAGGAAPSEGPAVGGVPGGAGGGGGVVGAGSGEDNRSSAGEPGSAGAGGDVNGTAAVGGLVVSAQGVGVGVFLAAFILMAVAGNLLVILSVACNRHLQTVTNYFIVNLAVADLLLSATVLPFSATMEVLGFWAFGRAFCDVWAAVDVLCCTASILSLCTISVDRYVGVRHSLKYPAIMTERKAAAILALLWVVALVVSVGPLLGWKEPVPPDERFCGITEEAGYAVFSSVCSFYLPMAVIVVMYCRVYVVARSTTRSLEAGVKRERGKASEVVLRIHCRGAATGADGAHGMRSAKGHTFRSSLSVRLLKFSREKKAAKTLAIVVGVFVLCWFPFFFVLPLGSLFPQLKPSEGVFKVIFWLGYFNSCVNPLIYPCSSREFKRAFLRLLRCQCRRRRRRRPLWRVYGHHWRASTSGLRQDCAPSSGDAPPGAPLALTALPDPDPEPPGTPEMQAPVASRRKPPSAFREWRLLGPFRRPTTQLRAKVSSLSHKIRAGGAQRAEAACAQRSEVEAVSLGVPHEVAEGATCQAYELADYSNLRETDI

[4] = biological target: T3, Alpha-1A adrenergic receptor (Homo sapiens, UniProt P35348); experiment: Binding affinity to human cloned adrenergic alpha-1A receptor
T3 sequence (P35348 whole entry): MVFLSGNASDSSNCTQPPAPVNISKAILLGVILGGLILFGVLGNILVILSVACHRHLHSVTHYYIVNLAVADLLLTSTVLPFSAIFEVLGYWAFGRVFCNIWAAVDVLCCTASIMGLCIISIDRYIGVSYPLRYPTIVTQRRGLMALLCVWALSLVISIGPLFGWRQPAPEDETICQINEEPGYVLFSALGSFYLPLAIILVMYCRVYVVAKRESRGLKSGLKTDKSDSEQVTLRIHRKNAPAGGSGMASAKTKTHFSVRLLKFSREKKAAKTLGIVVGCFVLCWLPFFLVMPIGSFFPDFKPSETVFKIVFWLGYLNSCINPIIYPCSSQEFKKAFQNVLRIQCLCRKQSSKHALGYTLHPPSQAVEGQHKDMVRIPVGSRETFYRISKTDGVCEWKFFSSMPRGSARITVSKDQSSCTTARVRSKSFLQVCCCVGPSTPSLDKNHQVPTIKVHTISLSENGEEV

D(2) dopamine receptor, sequence (P14416 whole entry): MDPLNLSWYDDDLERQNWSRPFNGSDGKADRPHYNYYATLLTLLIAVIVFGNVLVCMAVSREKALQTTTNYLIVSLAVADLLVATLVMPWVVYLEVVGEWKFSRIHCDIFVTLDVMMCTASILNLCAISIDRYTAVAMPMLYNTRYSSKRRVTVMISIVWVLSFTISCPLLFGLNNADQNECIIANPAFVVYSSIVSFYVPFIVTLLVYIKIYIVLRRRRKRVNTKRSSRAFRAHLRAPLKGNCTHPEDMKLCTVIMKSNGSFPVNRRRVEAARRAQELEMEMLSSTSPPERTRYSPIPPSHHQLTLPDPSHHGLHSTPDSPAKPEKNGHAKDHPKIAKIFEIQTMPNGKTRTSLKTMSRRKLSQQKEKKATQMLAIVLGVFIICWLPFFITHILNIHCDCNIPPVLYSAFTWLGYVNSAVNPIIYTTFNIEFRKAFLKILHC

| Ki [1] | Ki [2] | Ki [3] | Ki [4] | SMILES |
| --- | --- | --- | --- | --- |
| 51 nM |  |  |  | CC(C)Oc1ccccc1N1CCN([C@H]2CC[C@@H](NS(=O)(=O)c3ccccc3[N+](=O)[O-])CC2)CC1 |
| 86 nM |  |  |  | CC(C)Oc1ccccc1N1CCN([C@H]2CC[C@H](NS(=O)(=O)c3ccccc3[N+](=O)[O-])CC2)CC1 |
| 74 nM |  |  |  | CC(C)Oc1ccccc1N1CCN([C@H]2CC[C@@H](NS(=O)(=O)c3cccc(F)c3)CC2)CC1 |
| 64 nM |  |  |  | CC(C)Oc1ccccc1N1CCN([C@H]2CC[C@H](NS(=O)(=O)c3cccc(F)c3)CC2)CC1 |
| 198 nM | 120 nM | 6.2 nM |  | CC(C)Oc1ccccc1N1CCN([C@H]2CC[C@@H](NS(=O)(=O)c3cccc(Cl)c3F)CC2)CC1 |
| 123 nM | 364 nM | 64 nM | 189 nM | COc1ccc(S(=O)(=O)N[C@H]2CC[C@@H](N3CCN(c4ccccc4OCC4CC4)CC3)CC2)cc1OC |
| 1.9 nM |  | 15 nM | 25 nM | COc1ccc(C(F)(F)F)cc1S(=O)(=O)N[C@H]1CC[C@H](N2CCN(c3ccccc3OC(C)C)CC2)CC1 |
| 60 nM |  |  | 11 nM | Cc1ccc(S(=O)(=O)N[C@H]2CC[C@@H](N3CCN(c4ccccc4OC(C)C)CC3)CC2)cc1Cl |
| 588 nM | 601 nM | 48 nM | 19 nM | COc1ccc(Cl)cc1S(=O)(=O)N[C@H]1CC[C@@H](N2CCN(c3ccccc3OCC3CC3)CC2)CC1 |
| 425 nM | 952 nM | 44 nM | 36 nM | O=S(=O)(N[C@H]1CC[C@@H](N2CCN(c3ccccc3OCC3CC3)CC2)CC1)c1cc(Cl)ccc1F |
| 34 nM |  |  |  | CC(C)Oc1ccccc1N1CCN([C@H]2CC[C@H](NS(=O)(=O)c3ccccc3)CC2)CC1 |
| 55 nM |  |  |  | CC(C)Oc1ccccc1N1CCN([C@H]2CC[C@@H](NS(=O)(=O)c3ccccc3C#N)CC2)CC1 |
| 2.4 nM |  |  |  | CC(C)Oc1ccccc1N1CCN([C@H]2CC[C@H](NS(=O)(=O)c3ccccc3C#N)CC2)CC1 |
| 31 nM |  |  |  | CC(C)Oc1ccccc1N1CCN([C@H]2CC[C@H](NS(=O)(=O)c3ccccc3F)CC2)CC1 |
| 430 nM |  |  | 17 nM | CC(C)Oc1ccccc1N1CCN([C@H]2CC[C@@H](NS(=O)(=O)c3ccc(OC(F)(F)F)cc3)CC2)CC1 |
| 81 nM | 153 nM | 5.1 nM |  | COc1ccc(OC)c(S(=O)(=O)N[C@H]2CC[C@@H](N3CCN(c4ccccc4OC(C)C)CC3)CC2)c1 |
| 110 nM | 162 nM | 7 nM | 18 nM | COc1ccc(C)cc1S(=O)(=O)N[C@H]1CC[C@@H](N2CCN(c3ccccc3OC(C)C)CC2)CC1 |
| 356 nM | 1860 nM | 15 nM | 45 nM | CC(C)Oc1ccccc1N1CCN([C@H]2CC[C@@H](NS(=O)(=O)c3cc(Cl)ccc3F)CC2)CC1 |
| 149 nM |  | 2.4 nM |  | CC(C)Oc1ccccc1N1CCN([C@H]2CC[C@@H](NS(=O)(=O)c3ccccc3F)CC2)CC1 |
|  | 2 nM | 0.2 nM |  | CCOc1ccccc1OCCN[C@H](C)Cc1ccc(OC)c(S(N)(=O)=O)c1 [TAMSULOSIN] |

| SMILES | Ki [1] | Ki [2] | Ki [3] | Ki [4] |
| --- | --- | --- | --- | --- |
| COc1ccc(Cl)cc1S(=O)(=O)N[C@H]1CC[C@@H](N2CCN(c3ccccc3OC(C)C)CC2)CC1 (stereo in doubt; form 1) | 101 nM |  |  | 1 nM |
| COc1ccc(S(=O)(=O)N[C@H]2CC[C@@H](N3CCN(c4ccccc4OC(C)C)CC3)CC2)cc1OC (stereo in doubt; form 1) | 94 nM |  |  |  |
| COc1ccc(Cl)cc1S(=O)(=O)N[C@H]1CC[C@@H](N2CCN(c3ccccc3OC(C)C)CC2)CC1 (stereo in doubt; form 2) | 259 nM | 399 nM |  | 11 nM |
| COc1ccc(S(=O)(=O)N[C@H]2CC[C@@H](N3CCN(c4ccccc4OC(C)C)CC3)CC2)cc1OC (stereo in doubt; form 2) | 810 nM | 112 nM | 19 nM |  |
